Measurements as given in patent US8367086B1, “Process and product for inhibiting or preventing bacterial infections” (S.S. Steiner, Inc., priority 2004, dated 2013).
Positions of bridges follow the written chain, without caps; N, C: chain ends. Non-standard residues stand in square brackets, D forms with d. Residues, ends and D or L forms follow the SMILES beside them. *: point of attachment. Ileψ(thiazoline)Cys = CC[C@H](C)[C@H](N)C1=N[C@H](C(=O)*)CS1; dOrn = NCCC[C@@H](N)C(=O)O

How the values were obtained:
Type in all cases: cell-based
B. megaterium = experiment: paper disc diffusion susceptibility method; conditions: tobramycin 10 μg on disc
From the text: (§1) The first test method to be applied was the paper disc diffusion susceptibility method. In this method a filter paper disc impregnated with a chemical is placed on agar, and the chemical will diffuse from the disc into the agar. If an organism is placed on the agar, it will not grow in the area around the disc if it is susceptible to the chemical. This area of no growth around the disc is known as the zone of inhibition. This disc diffusion method for antibiotic susceptibility is known as the Kirby-Bauer method. In testing the effectiveness of various antibiotics, all factors, e.g., the agar utilized, the depth of the agar, the amount of organism used, and incubation conditions, are maintained constant for the various organisms and antibiotics being tested. […] The size of the zone of inhibition of the particular antimicrobial substance may also be influenced by the diffusion capability of that substance.
(§2) In performing the disc diffusion method tests, a bacterial suspension having an inoculum density of approximately 1×10^8 CFU/ml (colony forming units) was added to 10 ml trypticase soy agar at 46° C. It was mixed thoroughly by vortexing and then poured into a plastic Petri dish. After hardening of the agar, filter paper discs (φ7 mm.) made from Whatman filter paper No. 1 that had been impregnated by the manufacturer, Becton Dickinson, Inc., with the suitable antibiotic, were placed on the agar. In this series of tests the ability of each antibiotic per se to control the growth of the bacteria was measured.
(§3) Another series of agar containing Petri dishes was then prepared using the same bacteria and density thereof as had been prepared for the prior test series. However, here hop compounds were also present in the agar. The hop extract, either lupulone, humulone or xanthohumol, was dissolved in ethanol. While certain of the hop components are only slightly soluble in water, they are very soluble in ethanol. An ethanol control was prepared in the same way.
(§4) The size of the inhibition zones was measured to the nearest mm.
(§5) The concentration of β-acid and xanthohumol is set forth in μg/ml. The zone of inhibition was measured in centimeters. […]

B. subtilis = experiment: paper disc diffusion susceptibility method; conditions: tobramycin 10 μg on disc
From the text: as §1, §2, §3, §4, §5

S. salivarius = experiment: paper disc diffusion susceptibility method; conditions: tobramycin 10 μg on disc
From the text: as §1, §2, §3, §4, §5

[1] = system: Staphlococcus saprophyticus; experiment: paper disc diffusion susceptibility (Kirby-Bauer) method; conditions: for zone of inhibition, Xanthohumol Avg / zone of inhibition, Xanthohumol Expt #1 / zone of inhibition, Xanthohumol Expt #2 / zone of inhibition, β-acid Avg / zone of inhibition, β-acid Exp #1: S. saprophyticus, tobramycin 10 μg on disc; for change of zone of inhibition when lupulone was added: Experiment 1, 0.2 μg/ml β-resin versus antibiotic alone; for zone of inhibition, Experiment 1 Control / zone of inhibition, Experiment 2 Control: antibiotic disc alone; for zone of inhibition, Experiment 1 Control / zone of inhibition, Experiment 2 Control / zone of inhibition, Experiment 1 0.2 μg/ml β-resin / zone of inhibition, Experiment 2 0.2 μg/ml β-resin: 24 hours; for zone of inhibition, Experiment 1 0.2 μg/ml β-resin / zone of inhibition, Experiment 2 0.2 μg/ml β-resin: antibiotic disc with 0.2 μg/ml β-resin in the agar
From the text: as §1, §2, §3, §4, §5

NC[C@H]1O[C@H](O[C@H]2[C@H](O)[C@@H](O[C@H]3O[C@H](CO)[C@@H](O)[C@H](N)[C@H]3O)[C@H](N)C[C@@H]2N)[C@H](N)C[C@@H]1O [tobramycin] was tested, and the “zone of inhibition, Xanthohumol Avg” value (B. megaterium; xanthohumol 0 μg/ml) was 0.7 centimeters, the “zone of inhibition, Xanthohumol Expt #1” value (B. megaterium; xanthohumol 0 μg/ml) was 0.8 centimeters and the “zone of inhibition, Xanthohumol Expt #2” value (B. megaterium; xanthohumol 0 μg/ml) was 0.6 centimeters. The “zone of inhibition, Xanthohumol Avg” value (B. megaterium; xanthohumol 3 μg/ml) was 1.05 centimeters, the “zone of inhibition, Xanthohumol Expt #1” value (B. megaterium; xanthohumol 3 μg/ml) was 1.1 centimeters and the “zone of inhibition, Xanthohumol Expt #2” value (B. megaterium; xanthohumol 3 μg/ml) was 1.0 centimeters. For the same compound, the “zone of inhibition, β-acid Avg” value (B. megaterium; β-acid 0 μg/ml) was 0.7 centimeters, the “zone of inhibition, β-acid Exp #1” value (B. megaterium; β-acid 0 μg/ml) was 0.8 centimeters and the “zone of inhibition, β-acid Exp #2” value (B. megaterium; β-acid 0 μg/ml) was 0.6 centimeters. For the same compound, the “zone of inhibition, β-acid Avg” value (B. megaterium; β-acid 3 μg/ml) was 0.95 centimeters, the “zone of inhibition, β-acid Exp #1” value (B. megaterium; β-acid 3 μg/ml) was 1.1 centimeters and the “zone of inhibition, β-acid Exp #2” value (B. megaterium; β-acid 3 μg/ml) was 0.8 centimeters. The “zone of inhibition, Xanthohumol Avg” value (B. subtilis; xanthohumol 0 μg/ml) was 1.0 centimeters, the “zone of inhibition, Xanthohumol Expt #1” value (B. subtilis; xanthohumol 0 μg/ml) was 1.1 centimeters and the “zone of inhibition, Xanthohumol Expt #2” value (B. subtilis; xanthohumol 0 μg/ml) was 0.9 centimeters. For the same compound, the “zone of inhibition, Xanthohumol Avg” value (B. subtilis; xanthohumol 3 μg/ml) was 1.5 centimeters, the “zone of inhibition, Xanthohumol Expt #1” value (B. subtilis; xanthohumol 3 μg/ml) was 1.6 centimeters and the “zone of inhibition, Xanthohumol Expt #2” value (B. subtilis; xanthohumol 3 μg/ml) was 1.4 centimeters. The “zone of inhibition, β-acid Avg” value (B. subtilis; β-acid 0 μg/ml) was 1.0 centimeters, the “zone of inhibition, β-acid Exp #1” value (B. subtilis; β-acid 0 μg/ml) was 1.1 centimeters and the “zone of inhibition, β-acid Exp #2” value (B. subtilis; β-acid 0 μg/ml) was 0.9 centimeters. The “zone of inhibition, β-acid Avg” value (B. subtilis; β-acid 3 μg/ml) was 1.3 centimeters, the “zone of inhibition, β-acid Exp #1” value (B. subtilis; β-acid 3 μg/ml) was 1.4 centimeters and the “zone of inhibition, β-acid Exp #2” value (B. subtilis; β-acid 3 μg/ml) was 1.2 centimeters. The “zone of inhibition, Xanthohumol Avg” value (S. salivarius; xanthohumol 0 μg/ml) was 0.55 centimeters, the “zone of inhibition, Xanthohumol Expt #1” value (S. salivarius; xanthohumol 0 μg/ml) was 0.6 centimeters and the “zone of inhibition, Xanthohumol Expt #2” value (S. salivarius; xanthohumol 0 μg/ml) was 0.5 centimeters. The “zone of inhibition, Xanthohumol Avg” value (S. salivarius; xanthohumol 10 μg/ml) was 1.35 centimeters, the “zone of inhibition, Xanthohumol Expt #1” value (S. salivarius; xanthohumol 10 μg/ml) was 1.4 centimeters and the “zone of inhibition, Xanthohumol Expt #2” value (S. salivarius; xanthohumol 10 μg/ml) was 1.3 centimeters. For the same compound, the “zone of inhibition, β-acid Avg” value (S. salivarius; β-acid 0 μg/ml) was 0.55 centimeters, the “zone of inhibition, β-acid Exp #1” value (S. salivarius; β-acid 0 μg/ml) was 0.6 centimeters and the “zone of inhibition, β-acid Exp #2” value (S. salivarius; β-acid 0 μg/ml) was 0.5 centimeters. The “zone of inhibition, β-acid Avg” value (S. salivarius; β-acid 30 μg/ml) was 0.65 centimeters, the “zone of inhibition, β-acid Exp #1” value (S. salivarius; β-acid 30 μg/ml) was 0.7 centimeters and the “zone of inhibition, β-acid Exp #2” value (S. salivarius; β-acid 30 μg/ml) was 0.6 centimeters. For the same compound, the “zone of inhibition, Xanthohumol Avg” value ([1]; xanthohumol 0 μg/ml) was 0.95 centimeters, the “zone of inhibition, Xanthohumol Expt #1” value ([1]; xanthohumol 0 μg/ml) was 0.9 centimeters and the “zone of inhibition, Xanthohumol Expt #2” value ([1]; xanthohumol 0 μg/ml) was 1.0 centimeters. The “zone of inhibition, Xanthohumol Avg” value ([1]; xanthohumol 3 μg/ml) was 1.5 centimeters, the “zone of inhibition, Xanthohumol Expt #1” value ([1]; xanthohumol 3 μg/ml) was 1.5 centimeters and the “zone of inhibition, Xanthohumol Expt #2” value ([1]; xanthohumol 3 μg/ml) was 1.5 centimeters. For the same compound, the “zone of inhibition, β-acid Avg” value ([1]; β-acid 0 μg/ml) was 0.9 centimeters, the “zone of inhibition, β-acid Exp #1” value ([1]; β-acid 0 μg/ml) was 0.9 centimeters and the “zone of inhibition, β-acid Avg” value ([1]; β-acid 3 μg/ml) was 1.6 centimeters. For the same compound, the “zone of inhibition, β-acid Exp #1” value ([1]; β-acid 3 μg/ml) was 1.6 centimeters.
penicillin was tested, and the “change of zone of inhibition when lupulone was added” value [1] was “decline”, the “zone of inhibition, Experiment 1 Control” value [1] was 41 mm and the “zone of inhibition, Experiment 2 Control” value [1] was 37 mm. The “zone of inhibition, Experiment 1 0.2 μg/ml β-resin” value [1] was 39 mm and the “zone of inhibition, Experiment 2 0.2 μg/ml β-resin” value [1] was 35 mm.
With neomycin the “zone of inhibition, Experiment 1 Control” value [1] was 23 mm, the “zone of inhibition, Experiment 2 Control” value [1] was 26 mm and the “zone of inhibition, Experiment 1 0.2 μg/ml β-resin” value [1] was 25 mm. For the same compound, the “zone of inhibition, Experiment 2 0.2 μg/ml β-resin” value [1] was 24 mm.
For CC[C@H](C)[C@H](N)C1=N[C@H](C(=O)N[C@@H](CC(C)C)C(=O)N[C@H](CCC(=O)O)C(=O)N[C@H](C(=O)N[C@H]2CCCCNC(=O)[C@H](CC(N)=O)NC(=O)[C@@H](CC(=O)O)NC(=O)[C@H](Cc3cnc[nH]3)NC(=O)[C@@H](Cc3ccccc3)NC(=O)[C@H]([C@@H](C)CC)NC(=O)[C@@H](CCCN)NC2=O)[C@@H](C)CC)CS1 [BACITRACIN, bacitracin] ({Ileψ(thiazoline)Cys}-L[dE]IK[dOrn]I[dF]H[dD]N; lactam 4-C), the “change of zone of inhibition when lupulone was added” value [1] was “remained constant”, the “zone of inhibition, Experiment 1 Control” value [1] was 0 mm and the “zone of inhibition, Experiment 2 Control” value [1] was 0 mm. For the same compound, the “zone of inhibition, Experiment 1 0.2 μg/ml β-resin” value [1] was 0 mm and the “zone of inhibition, Experiment 2 0.2 μg/ml β-resin” value [1] was 0 mm.
